Reference: patent publication US8202893B2, “Cannabinergic lipid ligands” (University of Connecticut, priority 2004, dated 2012)
pIC50, pKi: −log10 of the molar value. Like-named read-outs stand apart in the source and are kept apart here.

What was measured:
anandamide transporter = experiment: [3H]Anandamide transporter competition assay; type: cell-based; conditions: human CCF-STG1 astrocytoma cells, 10 nM [3H]anandamide
Description: Human CCF-STG1 astrocytoma cells (American Type Culture collection) were grown in RPMI1640 culture medium containing 2 mM L-glutamine, 4.5 g/L glucose, 10 mM HEPES, and 1.0 mM sodium pyruvate, 10% FBS, cultures at 37° C. with 5% CO2. For standard competition assays, confluent cells grown in 24-well plates were rinsed and preincubated for 10 min at 37° C. in assay buffer (Hank's Balanced Salt Solution containing 0.1% DMSO, 10 mM HEPES) plus test compounds (at their final concentrations of 0.01-100 μM). After having discarded the preincubation media, the cells were incubated for 4 min in 0.2 ml assay buffer containing 10 nM [^3H] anandamide (137.6 Ci/mmol, New England Nuclear) plus test compounds. Reactions were stopped by removing the incubation media and rinsing the cells three times with 0.5 ml of ice-cold HBSS buffer containing 0.1% fatty acid-free Bovine Serum Albumin (sigma). Radioactive material in Triton X-100 cell extracts was measured by liquid scintillation counting. A minimum of three independent experiments conducted in six replicates was used to define the concentration needed to produce half-maximal inhibition (IC50) for each compound. IC50 values were obtained by nonlinear regression fitting of the data, using the PRIZM software package. Data are expressed as mean±SEM.

CB1 cannabinoid receptor = target: T1, CB1 cannabinoid receptor (Rattus norvegicus, UniProt P20272); experiment: CB1 receptor binding, [3H]CP-55,940 displacement; conditions: rat forebrain membranes
T1 construct: membranes were prepared from rat forebrain membranes; from tissue; host or cells: rat forebrain
Description: Some inventive analogs were tested for CB2 receptor binding affinity and for CB1 receptor affinity (to determine selectivity). […] The lower the Ki value, the higher the binding affinity. […] For the CB1 receptor binding studies, membranes were prepared from rat forebrain membranes according to the procedure of P. R. Dodd et al, A Rapid Method for Preparing Synaptosomes: Comparison with Alternative Procedures, Brain Res., 107-118 (1981). The binding of the novel analogues to the CB1 cannabinoid receptor was assessed as described in W. A. Devane et al, Determination and Characterization of a Cannabinoid Receptor in a Rat Brain, Mol. Pharmacol., 34, 605-613 (1988) and A. Charalambous et al, 5′-azido Δ^8-THC: A Novel Photoaffinity Label for the Cannabinoid Receptor, J. Med. Chem., 35, 3076-3079 (1992) with the following changes. The above articles are incorporated by reference herein.
Membranes, previously frozen at −80° C., were thawed on ice. To the stirred suspension was added three volumes of TME (25 mM Tris-HCl buffer, 5 mM MgCl2 and 1 mM EDTA) at a pH 7.4. The suspension was incubated at 4° C. for 30 min. At the end of the incubation, the membranes were pelleted and washed three times with TME.
(§1) The treated membranes were subsequently used in the binding assay described below. Approximately 30 μg of membranes were incubated in silanized 96-well microtiter plate with TME containing 0.1% essentially fatty acid-free bovine serum albumin (BSA), 0.8 nM [^3H] CP-55,940, and various concentrations of test materials in a final volume of 200 μL. The assays were incubated for 1 hour at 30° C. and then immediately filtered using Packard Filtermate 196 harvester and Whatman GF/C filterplates and washed with wash buffer (TME) containing 0.5% BSA. Radioactivity was detected using MicroScint 20 scintillation cocktail added directly to the dried filterplates, and the filterplates were counted using a Packard Instruments Top-Count. Nonspecific binding was assessed using 100 nM CP-55,940. Data collected from three independent experiments performed with duplicate determinations was normalized between 100% and 0% specific binding for [^3H] CP-55,940, determined using buffer and 100 nM CP-55,940. The normalized data was analyzed using a 4-parameter nonlinear logistic equation to yield IC50 values.

CB2 receptor = target: T2, CB2 receptor (Mus musculus, UniProt P47936); experiment: CB2 receptor binding, [3H]CP-55,940 displacement; conditions: mouse spleen membranes
T2 construct: membranes were prepared from frozen mouse spleen; from tissue; host or cells: mouse spleen
Description: as §1
For the CB2 receptor binding studies, membranes were prepared from frozen mouse spleen essentially according to the procedure of P. R. Dodd et al, A Rapid Method for Preparing Synaptosomes: Comparison with Alternative Procedures, Brain Res., 226, 107-118 (1981) which is incorporated by reference herein. Silanized centrifuge tubes were used throughout to minimize receptor loss due to adsorption. The CB2 binding assay was conducted in the same manner as for the CB1 binding assay. The binding affinities (Ki) were also expressed in nanomoles (nM).

[1] = target: T3, FAAH (fatty acid amide hydrolase) (Rattus norvegicus, UniProt P97612); experiment: FAAH screening: inhibition of anandamide metabolism to arachidonic acid; type: biochemical; conditions: 25 nmoles compound with 25 nmoles AEA, 75 μg enzyme, 250 μL, 15 min
T3 construct: Anandamide Amidase Activity in Rat Brain Microsomes; from tissue; host or cells: rat brain microsomes (by the cited procedure)
T3 sequence (P97612 1-579): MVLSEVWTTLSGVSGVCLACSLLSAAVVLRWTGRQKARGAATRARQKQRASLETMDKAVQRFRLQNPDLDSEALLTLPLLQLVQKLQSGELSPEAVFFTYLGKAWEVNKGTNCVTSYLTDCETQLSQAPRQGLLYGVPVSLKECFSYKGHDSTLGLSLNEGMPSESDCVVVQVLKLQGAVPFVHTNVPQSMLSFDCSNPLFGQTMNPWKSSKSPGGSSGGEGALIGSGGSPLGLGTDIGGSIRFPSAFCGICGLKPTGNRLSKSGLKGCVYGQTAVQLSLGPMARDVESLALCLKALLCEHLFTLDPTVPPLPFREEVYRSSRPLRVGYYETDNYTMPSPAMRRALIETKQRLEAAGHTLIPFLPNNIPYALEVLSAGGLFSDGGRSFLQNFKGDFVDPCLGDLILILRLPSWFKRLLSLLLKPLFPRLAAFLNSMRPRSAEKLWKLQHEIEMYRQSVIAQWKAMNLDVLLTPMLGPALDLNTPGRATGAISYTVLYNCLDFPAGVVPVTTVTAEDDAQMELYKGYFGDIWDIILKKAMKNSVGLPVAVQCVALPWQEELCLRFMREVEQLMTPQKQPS
Description: The FAAH (fatty acid amide hydrolase) enzyme preparation was obtained according to the procedure of Lang and Makriyannis et al High Performance Liquid Chromatographic Determination of Anandamide Amidase Activity in Rat Brain Microsomes, Analytical Biochemistry (238): 40-45, 1996.
All compound solutions were made to a concentration of 10 mM in DMSO. Three tests were performed on each compound: hydrolysis, to determine the stability of the compound in assay conditions without the enzyme present; metabolism, to determine the stability of the compound with the enzyme present; and inhibition of anandamide (native substrate) metabolism to arachidonic acid.
Again the reaction mixture was treated in the same manner as described above and the concentrations of AEA and AA were calculated using external standards. Percent inhibition was calculated using the following equation: % Inhib.=(AA15-AA0)i/(AA15-AA0)s where (AA15-AA0)c is the amount of arachidonic acid formed over 15 minutes from AEA with the inhibitor present and (AA15-AA0)s is the amount of arachidonic acid formed over 15 minutes from AEA when the inhibitor is not present. […] The reaction mixtures were treated as described above and the amount of AA formed was calculated. The software package GraphPad Prism was utilized to calculate IC50 and Ki. HPLC Conditions:
Chromatographic separation was achieved using an Ultrasphere ODS Pre-column (4.6×45 mm) from Beckman. Hardware consisted of a Waters Millennium HPLC system with a 20 μL injection loop. The mobile phase consisted of 8.5% o-phosphoric acid:acetonitrile (3:7), run isocratically at a rate of 1 mL/min and detection at 204 nm. The total run time was 8 minutes with AEA eluting at 2.2 minutes and AA at 6.0 minutes.

[2] = with PMSF (second value of cell), read-out: Ki CB1 (nM) (o/w PMSF)
[3] = without PMSF (first value of cell), read-out: Ki CB1 (nM) (o/w PMSF)
[4] = with PMSF (second value of cell), read-out: Ki CB1 (nM) (o/w PMSFQ)
[5] = without PMSF (first value of cell), read-out: Ki CB1 (nM) (o/w PMSFQ)

T1 sequence (P20272 whole entry): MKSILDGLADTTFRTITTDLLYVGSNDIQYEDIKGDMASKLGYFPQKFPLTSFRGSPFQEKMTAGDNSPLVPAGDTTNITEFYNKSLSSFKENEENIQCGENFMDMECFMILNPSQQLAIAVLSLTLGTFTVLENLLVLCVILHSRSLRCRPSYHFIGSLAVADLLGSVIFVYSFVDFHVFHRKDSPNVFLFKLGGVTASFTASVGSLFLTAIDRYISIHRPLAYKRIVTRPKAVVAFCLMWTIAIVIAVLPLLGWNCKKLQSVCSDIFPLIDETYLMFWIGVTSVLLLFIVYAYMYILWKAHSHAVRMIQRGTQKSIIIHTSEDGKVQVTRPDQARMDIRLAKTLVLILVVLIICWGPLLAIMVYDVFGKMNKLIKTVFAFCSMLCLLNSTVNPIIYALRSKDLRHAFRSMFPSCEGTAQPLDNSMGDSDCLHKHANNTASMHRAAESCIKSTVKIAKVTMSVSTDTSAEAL
T2 sequence (P47936 whole entry): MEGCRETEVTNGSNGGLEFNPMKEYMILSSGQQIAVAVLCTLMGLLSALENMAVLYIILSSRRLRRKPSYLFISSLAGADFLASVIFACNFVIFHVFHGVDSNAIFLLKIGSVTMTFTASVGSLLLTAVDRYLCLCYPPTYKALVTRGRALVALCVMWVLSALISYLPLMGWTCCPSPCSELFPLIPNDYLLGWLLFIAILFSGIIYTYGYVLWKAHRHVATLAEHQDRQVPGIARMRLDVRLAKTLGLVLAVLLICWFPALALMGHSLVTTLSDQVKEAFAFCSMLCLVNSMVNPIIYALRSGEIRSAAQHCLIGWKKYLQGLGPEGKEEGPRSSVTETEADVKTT

Row | SMILES | pIC50 (anandamide transporter; read-out: IC50 (AT inhib.)) | Ki (CB1 cannabinoid receptor; [2]) | Ki (CB1 cannabinoid receptor; [3]) | pKi (CB2 receptor) | pIC50 (anandamide transporter; read-out: IC50 AT inhibition) | Ki (CB1 cannabinoid receptor; [4]) | Ki (CB1 cannabinoid receptor; [5]) | FAAH % Inhibition [1]
1 | CCCCC/C=C\C/C=C\C/C=C\C/C=C\CCCCOC(=O)NC1CCCCC1 [Compound B8] | 4.48 | 1470 nM | 3960 nM | 6.11 | – | – | – | –
2 | [N-]=[N+]=NCCCC/C=C\C/C=C\C/C=C\C/C=C\CCCC(=O)NC1=NCCS1 [Compound A8] | – | – | – | 6.29 | 5.64 | 106 nM | 1300 nM | 49%
3 | CC(C)NC(=O)CCC/C=C\C/C=C\C/C=C\C/C=C\CCCCN=C=S [Compound A10] | – | – | – | 7.28 | – | 7.7 nM | 95.2 nM | 84%
4 | C[C@H](CO)NC(=O)CCC/C=C\C/C=C\C/C=C\C/C=C\C12CC3CC(CC(C3)C1)C2 [Compound A28] | – | – | – | 5.46 | – | – | – | –
5 | O=C(CCC/C=C\C/C=C\C/C=C\C/C=C\CCCCN=C=S)NCC1CC1 [Compound A11] | – | – | – | 7.15 | – | 34.2 nM | 91.7 nM | 90%
6 | CCCCC/C=C\C/C=C\C/C=C\C/C=C\CCCCOC(=O)NC1CCC1 [Compound B7] | 4.81 | 995 nM | 1410 nM | 5.27 | – | – | – | –
7 | CCCCC/C=C\C/C=C\C/C=C\C/C=C\CCCCNC(=O)OC[C@H](C)O [Compound B16] | 5.48 | 686 nM | 1200 nM | 6.54 | – | – | – | –
8 | CCCCC/C=C\C/C=C\C/C=C\C/C=C\CCCCOC(=O)N[C@H](C)CO [Compound B1] | 5.15 | 1440 nM | 1330 nM | 5.30 | – | – | – | 14.7%
9 | C[C@H](CO)NC(=O)CCC/C=C\C/C=C\C/C=C\C/C=C\CCC12CC3CC(CC(C3)C1)C2 [Compound A29] | – | – | – | 5.25 | – | – | – | –
10 | [N-]=[N+]=NCCCCC/C=C\C/C=C\C/C=C\C/C=C\CCCC(=O)NC1CC1 [Compound A5] | – | – | – | 7.24 | 5.54 | 0.9 nM | 26.7 nM | 7%
11 | O=C(CCC/C=C\C/C=C\C/C=C\C/C=C\CCCCCO)NC1CC1 [Compound A17] | – | – | – | 7.41 | 4.45 | 3.9 nM | 209 nM | 61%
12 | CCCCCN(C)C/C=C\C/C=C\C/C=C\C/C=C\CCCC(=O)NC1CC1 [Compound A21] | – | – | – | 6.62 | – | 66.3 nM | 76.5 nM | –
